The source of these data is US20260109732A1, “LIPID AMINES” (ModernaTX, Inc., priority 2021, published 2026).

Where a name gives a salt, the structure may show the parent alone.

A short description of data set [1]: Diameter and PDI from DLS measurements of mRNA nanoparticles with lipid amines. It is filed as physicochemical. The essentials:
(§1)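 DLS gave size and PDI, and Ribogreen gave encapsulation, for luciferase- or CFTR-mRNA nanoparticles (N:P 4.93). Particles came from IL1/DSPC/cholesterol/PEG-DMG-2K mixed at pH 4, mRNA-loaded, neutralized with TRIS pH 8.12, and then treated with lipid amine SA50 in pH 7.5 buffer.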

A short description of data set [2]: Encapsulation of mRNA nanoparticles with lipid amines using Ribogreen assay. It is filed as physicochemical. Summed up:
as §1

Data set [3] has as its system HeLa cells. As to the kind of experiment: Luciferase Protein Expression Assay in HeLa Cells. It is filed as cell-based, Human. The note with it: LNPs encapsulating Luciferase mRNA, 25 ng per well, N=4 wells; 5 h serum-free then 24 h; ONE-Glo. Summed up: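 Luminescence output, average RLU across N=4 wells, was measured with ONE-Glo after cell lysis. Before that, HeLa cells were exposed to 25 ng/well luciferase-mRNA nanoparticles (PBS control) for 5 h serum-free, then cultured overnight (24 h) in complete MEM.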

For data set [4], the system named is HeLa cells. As to the kind of experiment: CFTR Protein Expression Assay in HeLa Cells. It is filed as cell-based, Human. The note with it: LNPs encapsulating CFTR mRNA, N=4 wells; 5 h serum-free then 24 h; immunofluorescence vs PBS control. The essentials:
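Readout is fold-change in per-cell CFTR immunofluorescence intensity (488 nm, confocal imaging) relative to PBS-treated cells, from 4 replicate wells. LNPs encapsulating CFTR mRNA were applied serum-free for 5 h, followed by 24 h in complete medium before PFA fixation.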

Setting [5] is: CFTR mRNA nanoparticle with lipid amine.
The mark [6] stands for this setting: Luciferase mRNA nanoparticle modified with lipid amine.

Take `CC(C)CCC[C@@H](C)[C@H]1CC[C@H]2[C@@H]3CC=C4C[C@@H](OC(=O)CN(CCCCCCCCN)C(=O)CCCCCN)CC[C@]4(C)[C@H]3CC[C@]12C` [SA123, (3S,8S,9S,10R,13R,14S,17R)-10,13-dimethyl-17-((R)-6-methylheptan-2-yl)-2,3,4,7,8,9,10,11,12,13,14,15,16,17-tetradecahydro-1H-cyclopenta[a]phenanthren-3-yl N-(6-aminohexanoyl)-N-(8-aminooctyl)glycinate dihydrochloride]: the figures for the “Diameter (nm)” value in data set [1] (setting [5]) and in data set [1] (setting [6]) were 83.2 nm and 73 nm, respectively. For the same compound, the PDI in data set [1] (setting [5]) is on record as 0.12; in data set [1] (setting [6]), 0.14. Further, the “% Encapsulation (Ribogreen)” value is on record as 99.0% in data set [2] (setting [5]) and 99.5% in data set [2] (setting [6]). Further, in the data set on HeLa cells [3], the “Average Relative Light Units ± Standard Deviation” value worked out at 28520.5 ± 6429.4 Relative Light Units. The “Average fold-change in CFTR signal intensity per cell compared to buffer control ± standard deviation” value in the data set on HeLa cells [4] turned out to be 14.7 ± 1.0 fold-change.
On to `CC(C)CCC[C@@H](C)[C@H]1CC[C@H]2[C@@H]3CC=C4C[C@@H](OC(=O)N(CCCCNCCC5(N)CC5)CCC5(N)CC5)CC[C@]4(C)[C@H]3CC[C@]12C` [SA124, (3S,8S,9S,10R,13R,14S,17R)-10,13-dimethyl-17-((R)-6-methylheptan-2-yl)-2,3,4,7,8,9,10,11,12,13,14,15,16,17-tetradecahydro-1H-cyclopenta[a]phenanthren-3-yl (2-(1-aminocyclopropyl)ethyl)(4-((2-(1-aminocyclopropyl)ethyl)amino)butyl)carbamate trihydrochloride], for which the entries for the “Diameter (nm)” value in data set [1] (setting [5]) and in data set [1] (setting [6]) were 72.0 nm and 74 nm, respectively. The PDI was 0.10 in data set [1] (setting [5]) and 0.14 in data set [1] (setting [6]). Moreover, the entries for the “% Encapsulation (Ribogreen)” value in data set [2] (setting [5]) and in data set [2] (setting [6]) were 98.3% and 99.8%, respectively. Besides, the “Average Relative Light Units ± Standard Deviation” value in the data set with HeLa cells [3] was 45805.9 ± 5630.6 Relative Light Units. Moreover, the “Average fold-change in CFTR signal intensity per cell compared to buffer control ± standard deviation” value in the data set with HeLa cells [4] worked out at 15.0 ± 1.2 fold-change.
On to `CC(C)CCC[C@@H](C)[C@H]1CC[C@H]2[C@@H]3CC=C4C[C@@H](OC(=O)CCCC(=O)N(CCCCNCCC(C)N)CCC(C)N)CC[C@]4(C)[C@H]3CC[C@]12C.Cl.Cl.Cl` (stereo partly drawn) [SA125, (3S,8S,9S,10R,13R,14S,17R)-10,13-dimethyl-17-((R)-6-methylheptan-2-yl)-2,3,4,7,8,9,10,11,12,13,14,15,16,17-tetradecahydro-1H-cyclopenta[a]phenanthren-3-yl 5-((3-aminobutyl)(4-((3-aminobutyl)amino)butyl)amino)-5-oxopentanoate trihydrochloride], for which the entries for the “Diameter (nm)” value in data set [1] (setting [5]) and in data set [1] (setting [6]) were 75.0 nm and 77 nm, respectively. Also, the PDI in data set [1] (setting [5]) amounted to 0.15; in data set [1] (setting [6]) it was 0.19. For the same compound, the “% Encapsulation (Ribogreen)” value in data set [2] (setting [5]) turned out to be 99.0%; in data set [2] (setting [6]), 99.7%. The “Average Relative Light Units ± Standard Deviation” value in the data set with HeLa cells [3] is reported as 15625.8 ± 3399.4 Relative Light Units. Also, the “Average fold-change in CFTR signal intensity per cell compared to buffer control ± standard deviation” value in the data set on HeLa cells [4] was 14.2 ± 0.9 fold-change.
In the case of `CC(C)CCC[C@@H](C)[C@H]1CC[C@H]2[C@@H]3CC=C4C[C@@H](OC(=O)N(CCCCNC(C)CC(C)N)C(C)CC(C)N)CC[C@]4(C)[C@H]3CC[C@]12C.Cl.Cl.Cl` (stereo partly drawn) [SA126, (3S,8S,9S,10R,13R,14S,17R)-10,13-dimethyl-17-((R)-6-methylheptan-2-yl)-2,3,4,7,8,9,10,11,12,13,14,15,16,17-tetradecahydro-1H-cyclopenta[a]phenanthren-3-yl (4-aminopentan-2-yl)(4-((4-aminopentan-2-yl)amino)butyl)carbamate trihydrochloride], the “Diameter (nm)” value in data set [1] (setting [5]) is 79.3 nm; in data set [1] (setting [6]), 75 nm. In addition, the PDI in data set [1] (setting [5]) was 0.15; in data set [1] (setting [6]) it was 0.18. In addition, the “% Encapsulation (Ribogreen)” value in data set [2] (setting [5]) is 99.4%; in data set [2] (setting [6]) it was 99.7%. For the same compound, the “Average Relative Light Units ± Standard Deviation” value in the data set with HeLa cells [3] came out at 31706.7 ± 7386.3 Relative Light Units. Further, the “Average fold-change in CFTR signal intensity per cell compared to buffer control ± standard deviation” value in the data set with HeLa cells [4] is listed as 18.2 ± 2.0 fold-change.
`CCC(N)CCNCCCCN(CCC(N)CC)C(=O)O[C@H]1CC[C@@]2(C)C(=CC[C@H]3[C@@H]4CC[C@H]([C@H](C)CCCC(C)C)[C@@]4(C)CC[C@@H]32)C1.Cl.Cl.Cl` (stereo partly drawn) [SA127, (3S,8S,9S,10R,13R,14S,17R)-10,13-dimethyl-17-((R)-6-methylheptan-2-yl)-2,3,4,7,8,9,10,11,12,13,14,15,16,17-tetradecahydro-1H-cyclopenta[a]phenanthren-3-yl (3-aminopentyl)(4-((3-aminopentyl)amino)butyl)carbamate trihydrochloride]: the “Diameter (nm)” value is 74.1 nm in data set [1] (setting [5]) and 74 nm in data set [1] (setting [6]). The figures for the PDI in data set [1] (setting [5]) and in data set [1] (setting [6]) were 0.12 and 0.17, respectively. The “% Encapsulation (Ribogreen)” value is recorded as 99.5% in data set [2] (setting [5]) and 99.7% in data set [2] (setting [6]). Also, the “Average Relative Light Units ± Standard Deviation” value with HeLa cells [3] was determined as 41246.9 ± 5672.4 Relative Light Units. In addition, the “Average fold-change in CFTR signal intensity per cell compared to buffer control ± standard deviation” value with HeLa cells [4] amounted to 20.1 ± 1.9 fold-change.
On to `CC(C)CCC[C@@H](C)[C@H]1CC[C@H]2[C@@H]3CC=C4C[C@@H](OC(=O)N(CCCCNCC5(CN)CC5)CC5(CN)CC5)CC[C@]4(C)[C@H]3CC[C@]12C.Cl.Cl.Cl` [SA128, (3S,8S,9S,10R,13R,14S,17R)-10,13-dimethyl-17-((R)-6-methylheptan-2-yl)-2,3,4,7,8,9,10,11,12,13,14,15,16,17-tetradecahydro-1H-cyclopenta[a]phenanthren-3-yl ((1-(aminomethyl)cyclopropyl)methyl)(4-(((1-(aminomethyl)cyclopropyl)methyl)amino)butyl)carbamate trihydrochloride], for which the figures for the “Diameter (nm)” value in data set [1] (setting [5]) and in data set [1] (setting [6]) were 74.5 nm and 75 nm, respectively. Moreover, the results for the PDI in data set [1] (setting [5]) and in data set [1] (setting [6]) were 0.13 and 0.16, respectively. For the same compound, the “% Encapsulation (Ribogreen)” value in data set [2] (setting [5]) and in data set [2] (setting [6]) was 99.4% each time. Moreover, the “Average Relative Light Units ± Standard Deviation” value in the data set on HeLa cells [3] stood at 39386.4 ± 5261.4 Relative Light Units. Further, the “Average fold-change in CFTR signal intensity per cell compared to buffer control ± standard deviation” value with HeLa cells [4] was determined as 19.9 ± 0.4 fold-change.
Consider `CC(C)CCC[C@@H](C)[C@H]1CC[C@H]2[C@@H]3CC=C4C[C@@H](OC(=O)CN(CCCCCCCCN)C(=O)[C@@H](N)CCCN)CC[C@]4(C)[C@H]3CC[C@]12C.Cl.Cl.Cl` [SA129, (3S,8S,9S,10R,13R,14S,17R)-10,13-dimethyl-17-((R)-6-methylheptan-2-yl)-2,3,4,7,8,9,10,11,12,13,14,15,16,17-tetradecahydro-1H-cyclopenta[a]phenanthren-3-yl N-(8-aminooctyl)-N-((S)-2,5-diaminopentanoyl)glycinate trihydrochloride], for which the “Diameter (nm)” value worked out at 81.6 nm in data set [1] (setting [5]) and 70 nm in data set [1] (setting [6]). In addition, the PDI in data set [1] (setting [5]) was 0.12; in data set [1] (setting [6]) it was 0.16. The results for the “% Encapsulation (Ribogreen)” value in data set [2] (setting [5]) and in data set [2] (setting [6]) were 96.2% and 99.5%, respectively. Further, the “Average Relative Light Units ± Standard Deviation” value in the data set on HeLa cells [3] was found to be 144.8 ± 21.6 Relative Light Units. The “Average fold-change in CFTR signal intensity per cell compared to buffer control ± standard deviation” value in the data set with HeLa cells [4] is recorded as 1.0 ± 0 fold-change.
With `CC(C)CCC[C@@H](C)[C@H]1CC[C@H]2[C@@H]3CC=C4C[C@@H](OC(=O)[C@H](CCCCN)NCCCCCCN)CC[C@]4(C)[C@H]3CC[C@]12C.Cl.Cl.Cl` [SA131, (3S,8S,9S,10R,13R,14S,17R)-10,13-dimethyl-17-((R)-6-methylheptan-2-yl)-2,3,4,7,8,9,10,11,12,13,14,15,16,17-tetradecahydro-1H-cyclopenta[a]phenanthren-3-yl (6-aminohexyl)-L-lysinate trihydrochloride], the “Diameter (nm)” value in data set [1] (setting [5]) is reported as 83.8 nm; in data set [1] (setting [6]), 72 nm. Moreover, the PDI is on record as 0.14 in data set [1] (setting [5]) and 0.12 in data set [1] (setting [6]). In addition, the “% Encapsulation (Ribogreen)” value is 98.6% in data set [2] (setting [5]) and 99.6% in data set [2] (setting [6]). The “Average Relative Light Units ± Standard Deviation” value in the data set on HeLa cells [3] came out at 40915.5 ± 4983.3 Relative Light Units. For the same compound, the “Average fold-change in CFTR signal intensity per cell compared to buffer control ± standard deviation” value in the data set with HeLa cells [4] was found to be 10.8 ± 0.5 fold-change.
`CC(C)CCC[C@@H](C)[C@H]1CC[C@H]2[C@@H]3CC=C4C[C@@H](OC(=O)[C@H](CCCN)NCCCCCCN)CC[C@]4(C)[C@H]3CC[C@]12C.Cl.Cl.Cl` [SA132, (3S,8S,9S,10R,13R,14S,17R)-10,13-dimethyl-17-((R)-6-methylheptan-2-yl)-2,3,4,7,8,9,10,11,12,13,14,15,16,17-tetradecahydro-1H-cyclopenta[a]phenanthren-3-yl (S)-5-amino-2-((6-aminohexyl)amino)pentanoate trihydrochloride]: the “Diameter (nm)” value in data set [1] (setting [5]) was 84.2 nm; in data set [1] (setting [6]) it was 81 nm. Besides, the PDI in data set [1] (setting [5]) is 0.15; in data set [1] (setting [6]) it was 0.41. Further, the entries for the “% Encapsulation (Ribogreen)” value in data set [2] (setting [5]) and in data set [2] (setting [6]) were 96.8% and 99.3%, respectively. Also, the “Average Relative Light Units ± Standard Deviation” value in the data set on HeLa cells [3] is 131.6 ± 15.5 Relative Light Units. Further, the “Average fold-change in CFTR signal intensity per cell compared to buffer control ± standard deviation” value in the data set with HeLa cells [4] amounted to 1.6 ± 0.1 fold-change.
